# PubChem BioAssay AID2060343 (Molecular Pharmacology Branch, DTP, NCI, 2025)
# pIC50: −log10 of the molar value.
# Tested on: 138582-337-R-J1-PDC spheroids with HUVEC/MSC, viability
# Test: Anticancer human tumor 138582-337-R-J1-PDC patient-derived Merkel cell tumor cell line growth inhibition [IpAb]
# Details: for pIC50: curve of first compound; for viability, T/C: stronger effect = lower value
# Text: Combinatorial screen of targeted agents with ipatasertib and abemaciclib in multi-cell type tumor spheroids
# A high-throughput screen of multi-cell type tumor spheroids was designed to identify active combinations of targeted small molecules and ipatasertib or abemaciclib. Complex spheroids include a stromal component modeled by human endothelial cells (HUVEC) and fibroblasts modeled by human mesenchymal stem cells (MSCs). The concentration ranges selected for each drug and investigational agent were based upon clinically achievable concentrations if the clinical Cmax of the agent was known.
# Compounds. The drugs and investigational agents: ipatasertib (NSC767898), abemaciclib(NSC768073), selumetinib (NSC741078), trametinib (758246), adavosertib (NSC754352), everolimus (NSC733504), sapanisertib (NSC764658), vemurafenib (NSC761431), venetoclax (NSC766270), copanlisib (NSC809693), apelisib (NSC765974), palbociblib (NSC758247), vemurafenib (NSC761431), dabrafenib (NSC764134), ravoxertinib (NSC781343), BMS-387032 (NSC767048), sotorasib (NSC818433), talazoparib (NSC767125) and afursertib (NSC778305), were obtained from the National Cancer Institute (NCI) Developmental Therapeutics Program Chemical Repository. The FDA-approved anticancer drug set is available from the NCI Developmental Therapeutics Program. […] The stock solutions were prepared in dimethyl sulfoxide (DMSO, Sigma-Aldrich, St. Louis, MO, cat. D2650) at 800-fold the tested concentration and stored at -70 degrees C prior to their use. All drugs and investigational agents were tested over a range starting from a high concentration at or near the clinical Cmax and decreasing in half-log increments. If the clinical Cmax for an agent had not been determined, the highest concentration tested was 10 microM.
# NCI60 Cell Culture. NCI60 cell lines were obtained from the NCI Developmental Therapeutics Program Tumor Repository. For each lot of cells, the Repository performed Applied Biosystems AmpFLSTR Identifiler testing with PCR amplification to confirm consistency with the published Identifier STR profile for each cell line. Cells were kept in continuous culture for no more than 20 passages. The optimal seeding densities for each of the cell lines at each time point assessed were determined prior to performing the concentration response studies. Briefly, the NCI60 human tumor lines were grown as monolayers in RPMI 1640 medium supplemented with 10% FBS and 2 mmol/L L-glutamine.
# An additional 9 lines were from the NCI60 cell line panel including MDA-MB-231 breast carcinoma, MDA-MB-468 breast carcinoma, MCF7 breast carcinoma, Hs578T breast carcinoma, MALME-3M melanoma, SK-MEL-2 melanoma, SK-OV-3 ovarian carcinoma, DU-145 prostate carcinoma, PC-3 prostate carcinoma, all cell lines along with major genetic alterations are listed on Table 2. Pooled donor human umbilical vein endothelial cells (HUVEC, Lonza, cat. CC-2519) and human mesenchymal stem cells (hMSC, Lonza, cat. PT-2501) were purchased from Lonza (Walkersville, MD).
# PDMR cell lines were grown in complete medium (DC medium): Dulbecco's modified Eagle's medium (DMEM)/F12 supplemented with 5% fetal bovine serum (FBS), 2 mM L-glutamine, 100 U/mL penicillin and 100 µg/ml streptomycin, 0.4 µg/ml hydrocortisone, 10 ng/ml epidermal growth factor (EGF) recombinant human protein, 24 µg/mL adenine, and 0.1 mg/mL primocin. During culture from frozen stock vials, PDMR cells were cultured in the same medium containing 10 µM Y-27632 (see Table 3). The PDCs were cultured in complete DMEM/F12 media without 10 microM Y-27632 dihydrochloride for at least two passages prior to the screen. The pooled donor HUVEC and hMSC were cultured in endothelial cell growth medium 2 (PromoCell, Heidelberg, Germany, cat. C-22011) and mesenchymal stem cell growth medium 2 (PromoCell, cat. C-28009), respectively. For all experiments, HUVEC and hMSC were used at passages </=5.
# […]
# 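Further: spheroids exposed to compounds for seven days.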
# 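Wherever viability, T/C is given: 100% = DMSO vehicle control viability.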
smiles,measurement,setting,value
C=CCn1c(=O)c2cnc(Nc3ccc(N4CCN(C)CC4)cc3)nc2n1-c1cccc(C(C)(C)O)n1 + CC(C)NCC(C(=O)N1CCN(c2ncnc3c2C(C)CC3O)CC1)c1ccc(Cl)cc1,pIC50,second compound 0.1 µM,< 5.00
same,pIC50,second compound 0.316 µM,< 5.00
same,pIC50,second compound 1 µM,< 5.00
same,pIC50,second compound 3.16 µM,> 7.50
same,pIC50,second compound 10 µM,> 7.50
same,"viability, T/C","second compound 0.1 µM, first compound 0.0316 µM",96.8%
same,"viability, T/C","second compound 0.1 µM, first compound 0.1 µM",95.6%
same,"viability, T/C","second compound 0.1 µM, first compound 0.316 µM",78%
same,"viability, T/C","second compound 0.1 µM, first compound 1 µM",99.6%
same,"viability, T/C","second compound 0.1 µM, first compound 3.16 µM",99.1%
same,"viability, T/C","second compound 0.1 µM, first compound 10 µM",134%
same,"viability, T/C","second compound 0.316 µM, first compound 0.0316 µM",85.5%
same,"viability, T/C","second compound 0.316 µM, first compound 0.1 µM",73.6%
same,"viability, T/C","second compound 0.316 µM, first compound 0.316 µM",74.7%
same,"viability, T/C","second compound 0.316 µM, first compound 1 µM",71.4%
same,"viability, T/C","second compound 0.316 µM, first compound 3.16 µM",94.2%
same,"viability, T/C","second compound 0.316 µM, first compound 10 µM",117%
same,"viability, T/C","second compound 1 µM, first compound 0.0316 µM",66.7%
same,"viability, T/C","second compound 1 µM, first compound 0.1 µM",73.5%
same,"viability, T/C","second compound 1 µM, first compound 0.316 µM",54.5%
same,"viability, T/C","second compound 1 µM, first compound 1 µM",63.6%
same,"viability, T/C","second compound 1 µM, first compound 3.16 µM",83.4%
same,"viability, T/C","second compound 1 µM, first compound 10 µM",89.1%
same,"viability, T/C","second compound 3.16 µM, first compound 0.0316 µM",58.1%
same,"viability, T/C","second compound 3.16 µM, first compound 0.1 µM",53.6%
same,"viability, T/C","second compound 3.16 µM, first compound 0.316 µM",38.9%
same,"viability, T/C","second compound 3.16 µM, first compound 1 µM",46.6%
same,"viability, T/C","second compound 3.16 µM, first compound 3.16 µM",74.8%
same,"viability, T/C","second compound 3.16 µM, first compound 10 µM",73.8%
same,"viability, T/C","second compound 10 µM, first compound 0.0316 µM",54.6%
same,"viability, T/C","second compound 10 µM, first compound 0.1 µM",41.5%
same,"viability, T/C","second compound 10 µM, first compound 0.316 µM",33.9%
same,"viability, T/C","second compound 10 µM, first compound 1 µM",42%
same,"viability, T/C","second compound 10 µM, first compound 3.16 µM",60.1%
same,"viability, T/C","second compound 10 µM, first compound 10 µM",55.5%
Cn1cnc2c(F)c(Nc3ccc(Br)cc3Cl)c(C(=O)NOCCO)cc21 + CC(C)NCC(C(=O)N1CCN(c2ncnc3c2C(C)CC3O)CC1)c1ccc(Cl)cc1,pIC50,second compound 0.1 µM,< 5.52
same,pIC50,second compound 0.316 µM,5.75
same,pIC50,second compound 1 µM,6.48
same,pIC50,second compound 3.16 µM,7.20
same,pIC50,second compound 10 µM,> 8.02
same,"viability, T/C","second compound 0.1 µM, first compound 0.00949 µM",97.8%
same,"viability, T/C","second compound 0.1 µM, first compound 0.03 µM",88.1%
same,"viability, T/C","second compound 0.1 µM, first compound 0.0949 µM",85.2%
same,"viability, T/C","second compound 0.1 µM, first compound 0.3 µM",83.8%
same,"viability, T/C","second compound 0.1 µM, first compound 0.949 µM",101%
same,"viability, T/C","second compound 0.1 µM, first compound 3 µM",105%
same,"viability, T/C","second compound 0.316 µM, first compound 0.00949 µM",74.9%
same,"viability, T/C","second compound 0.316 µM, first compound 0.03 µM",73.3%
same,"viability, T/C","second compound 0.316 µM, first compound 0.0949 µM",69.6%
same,"viability, T/C","second compound 0.316 µM, first compound 0.3 µM",55%
same,"viability, T/C","second compound 0.316 µM, first compound 0.949 µM",56.6%
same,"viability, T/C","second compound 0.316 µM, first compound 3 µM",46.7%
same,"viability, T/C","second compound 1 µM, first compound 0.00949 µM",58.9%
same,"viability, T/C","second compound 1 µM, first compound 0.03 µM",68.2%
same,"viability, T/C","second compound 1 µM, first compound 0.0949 µM",56%
same,"viability, T/C","second compound 1 µM, first compound 0.3 µM",47.2%
same,"viability, T/C","second compound 1 µM, first compound 0.949 µM",42.4%
same,"viability, T/C","second compound 1 µM, first compound 3 µM",22.4%
same,"viability, T/C","second compound 3.16 µM, first compound 0.00949 µM",57.1%
same,"viability, T/C","second compound 3.16 µM, first compound 0.03 µM",64%
same,"viability, T/C","second compound 3.16 µM, first compound 0.0949 µM",42.5%
same,"viability, T/C","second compound 3.16 µM, first compound 0.3 µM",33.4%
same,"viability, T/C","second compound 3.16 µM, first compound 0.949 µM",27.5%
same,"viability, T/C","second compound 3.16 µM, first compound 3 µM",11.3%
same,"viability, T/C","second compound 10 µM, first compound 0.00949 µM",46.1%
same,"viability, T/C","second compound 10 µM, first compound 0.03 µM",46.7%
same,"viability, T/C","second compound 10 µM, first compound 0.0949 µM",33.6%
same,"viability, T/C","second compound 10 µM, first compound 0.3 µM",24.9%
same,"viability, T/C","second compound 10 µM, first compound 0.949 µM",18.6%
same,"viability, T/C","second compound 10 µM, first compound 3 µM",3.49%
